Source: patent US20100204263A1, “METHOD OF TREATING MULTIDRUG RESISTANT CANCERS” (priority 2007, published 2010)
Where two headings read alike, the source gives them in different places.

Experiments:
[1] = system: HL60 (human promyelocytic leukemia) cells; experiment: WST-1 cell proliferation assay, HL60; format: cell-based
Protocol: (§1) The HL60NCR resistant cell line has been characterized with over-expression of the multidrug resistant protein (MDR; p-glycoprotein). The over-expression ratio (level of MDR in resistant cell line over level of MDR in the parental cell line) is 8 fold with a 10 fold increase in pgp function. Pgp surface expression was measured by flow cytometry with the MRK16 antibody and Pgp function with the generic substrate, Rh123.
(§2) WST-1 is a water-soluble tetrazolium salt that can be used for cell proliferation or cell viability assays. The rate of WST-1 cleavage by mitochondrial dehydrogenases correlates with the number of viable cells in the culture. WST-1 is added directly to the cells ( 1/10th of the culture volume) and absorbance at 450 nm can be measured using an ELISA plate reader following a short incubation at 37° C.

[2] = system: 8226/MR20, a cell line selected for resistance to mitoxantrone (BCRP); experiment: WST-1 cell proliferation assay, 8226/MR20; settings: 8226/MR20 vs 8226
Protocol: The 8226/MR20 resistant cell line has been characterized with over-expression of the multidrug resistant protein (BCRP).
BCRP surface expression was measured by flow cytometry with the BXP21 antibody.
as §2

[3] = system: pretreatment secondary AML patient cells; experiment: Amonafide and daunorubicin efflux in cryopreserved cells of patients treated with amonafide+cytarabine; format: cell-based, human; settings: cells from 15 patients treated with amonafide+cytarabine
Protocol: Cryopreserved cells were tested for viability and samples with viabilities less than 40% were considered inevaluable and discarded.
To measure drug uptake, the substrates were incubated with cells in medium containing each drug alone, or in combination with the modulator at the desired final concentrations. Cells were then washed and resuspended in PBS, and placed on ice. Drug-associated fluorescence was measured by flow cytometry using a FacScan flow cytometer (Becton Dickinson Immunocytometry Systems, San Jose, Calif.) equipped in standard fashion with an Argon laser for 488 nm excitation and a 585/42 band-pass filter (FL2) or a 670 long-pass (FL3) filter for emission collection. Data were analyzed with WinList software (Verity Software House, Topsham, Me.).

[4] = system: secondary AML patient sample cells; experiment: Drug transport (CsA modulation of uptake) in secondary AML patient cells; format: cell-based, human; settings: for increase of uptake by Cyclosporin A, mean value: 22 secondary AML samples; for CsA Modulation of Uptake: D-value; for number of patient samples with uptake increased by ≧10% by Cyclosporin A: of 22 secondary AML samples
Protocol: The expression and function of Pgp, MRP-1 and BCRP was measured in cells collected from patients with secondary AML. Pgp, MRP-1 and BCRP expression was measured by flow cytometry with the MRK16, MRPm6 and BXP21 antibodies, and function by modulation of uptake of the fluorescent substrates DiOC2(3), rhodamine-123 and pheophorbide A by PSC-833, MK571 and FTC, respectively, all measured by the Kolmogorov-Smirnov statistic, generating D-values.

[5] = system: HL60/VCR (HL60/MDR), a cell line selected for resistance to vincristine; experiment: WST-1 cell proliferation assay, HL60/VCR; settings: for IC50: Homo sapiens, HL60/VCR, read-out: IC50 HL60/MDR; for Fold Change in IC50: HL60/MDR vs HL60
Protocol: as §1, §2

Pgp [6] = target: T1, Pgp (Homo sapiens, UniProt P08183); settings: human, MDCK-MDR1
T1 sequence (P08183 whole entry): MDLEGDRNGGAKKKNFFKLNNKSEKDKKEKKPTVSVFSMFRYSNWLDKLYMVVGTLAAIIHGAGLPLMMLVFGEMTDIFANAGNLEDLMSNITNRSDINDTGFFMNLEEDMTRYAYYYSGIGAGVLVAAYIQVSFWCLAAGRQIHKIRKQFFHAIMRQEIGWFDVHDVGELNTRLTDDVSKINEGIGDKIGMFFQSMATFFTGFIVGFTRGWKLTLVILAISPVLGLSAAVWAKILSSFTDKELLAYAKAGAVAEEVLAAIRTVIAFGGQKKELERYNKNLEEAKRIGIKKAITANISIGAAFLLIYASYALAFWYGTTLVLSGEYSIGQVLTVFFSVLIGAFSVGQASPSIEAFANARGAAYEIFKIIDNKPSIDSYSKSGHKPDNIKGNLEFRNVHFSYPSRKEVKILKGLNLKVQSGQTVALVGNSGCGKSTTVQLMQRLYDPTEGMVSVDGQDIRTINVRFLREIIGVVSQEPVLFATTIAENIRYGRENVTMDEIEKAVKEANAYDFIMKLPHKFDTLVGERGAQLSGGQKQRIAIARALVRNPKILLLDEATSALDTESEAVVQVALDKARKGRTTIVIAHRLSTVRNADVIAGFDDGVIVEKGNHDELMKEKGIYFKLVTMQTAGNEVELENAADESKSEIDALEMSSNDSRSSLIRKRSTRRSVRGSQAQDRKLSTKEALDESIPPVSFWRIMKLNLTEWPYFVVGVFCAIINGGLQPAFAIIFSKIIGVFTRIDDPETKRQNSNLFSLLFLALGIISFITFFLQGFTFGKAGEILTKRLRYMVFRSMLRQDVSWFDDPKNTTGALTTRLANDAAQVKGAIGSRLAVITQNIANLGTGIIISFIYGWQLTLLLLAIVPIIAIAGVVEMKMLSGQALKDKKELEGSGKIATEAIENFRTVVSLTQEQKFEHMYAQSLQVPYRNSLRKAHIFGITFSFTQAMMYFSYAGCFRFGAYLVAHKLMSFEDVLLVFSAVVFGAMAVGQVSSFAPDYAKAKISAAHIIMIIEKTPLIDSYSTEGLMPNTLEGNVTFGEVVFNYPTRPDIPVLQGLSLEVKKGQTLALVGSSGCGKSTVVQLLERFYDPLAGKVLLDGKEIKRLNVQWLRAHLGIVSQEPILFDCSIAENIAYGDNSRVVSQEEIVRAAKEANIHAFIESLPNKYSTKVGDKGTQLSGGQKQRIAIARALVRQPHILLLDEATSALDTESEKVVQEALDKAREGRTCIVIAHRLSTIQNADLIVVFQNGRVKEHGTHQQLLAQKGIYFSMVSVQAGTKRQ
Description: MDR1-MDCK are Madin Darby Canine Kidney cells transfected with the human multi-drug resistance gene. Confluent monolayers made from these cells can be used to access a test compound's potential role as a P-gp substrate. The assay set up is similar to the CaCo-2 assay.
(§3) Both the Caco-2 and MDR1-MDCK cells were used for this model.

Pgp [7] = target: T1, Pgp; settings: human, Caco-2
Description: as §3

[8] = system: K562 cells (Pgp negative); experiment: Functional efflux assay (DiOC2), K562; format: cell-based, human; settings: K562, flow cytometry
Protocol: The cells were washed with PBS and resuspended in medium. An aliquot was taken for cytometric quantitation of baseline dye uptake. The remaining samples were incubated again either with or without CSA and resuspended in fresh, chilled medium in order to assess dye efflux also by flow cytometric analysis. Functional expression analyses of Pgp were performed on a BD FACSCalibur flow cytometer (Franklin Lakes, N.J.). Cellular amonafide content was measured on the Cytopeia Influx flow cytometer (Seattle, Wash.). Data analysis was performed using the Dako Cytomation Summit software, version 4.0 (Fort Collins, Colo.). […] Differential Pgp staining of anti-Pgp treated cells was compared to that of control cells counted with the same number of gated events. […] These analyses were performed using the NCSS 2007 software (Kaysville, Utah). This approach addresses the maximum difference between two empirical distribution functions.

[9] = system: IGROV1-T8, a cell line selected for resistance to topotecan (increased BCRP expression); settings: T8 resistant line vs IGROV1
Protocol: (§4) The T8 resistant cell line has been characterized with over-expression of the multidrug resistant protein BCRP (breast cancer resistance protein). Topotecan, which is a known substrate for BCRP, was used as a control.
(§5) Sulforhodamine-B (SRB) assay is performed to assess cell survival. SRB is a water-soluble dye that binds to the basic amino acids of the cellular proteins. Thus, colorimetric measurement of the bound dye provides an estimate of the total protein mass that is related to the cell number. The color can then be quantified using a simple colorimetric assay. The results can be read on a multiwell scanning spectrophotometer (ELISA reader).

[10] = system: IGROV1-T8, a cell line selected for resistance to topotecan (increased BCRP expression); experiment: cells; settings: Homo sapiens, T8
Protocol: as §4, §5

[11] = system: IGROV1 (human ovarian) cell line; experiment: SRB cell proliferation assay, IGROV1; format: cell-based; settings: read-out: IC50
Protocol: as §4, §5

[12] = HL-60, wild-type HL60, WST-1, read-out: IC50 HL60

For `COc1cccc2c1C(=O)c1c(O)c3c(c(O)c1C2=O)C[C@@](O)(C(C)=O)C[C@@H]3O[C@H]1C[C@H](N)[C@H](O)[C@H](C)O1` [Daunorubicin, daunorubicin], the IC50 ([1]; HL-60, read-out: IC50 HL60) was 15 nM, the “loss of potency in the BCRP line” value [2] was “½” and the “drug efflux in relation to clinical response (CR vs non-CR)” value [3] was “negatively correlated with response”. For the same molecule, the “increase of uptake by Cyclosporin A, mean value” (from here on “increase of uptake”) [4] was 19.7%, the “CsA Modulation of Uptake” value ([4]; Pt 1) was 0.2 and the “CsA Modulation of Uptake” value ([4]; Pt 2) was 0.14. The “CsA Modulation of Uptake” value ([4]; Pt 3) was 0.27, the “CsA Modulation of Uptake” value ([4]; Pt 4) was 0.23 and the “CsA Modulation of Uptake” value ([4]; Pt 5) was 0. For the same molecule, the “CsA Modulation of Uptake” value ([4]; Pt 6) was 0.41, the “CsA Modulation of Uptake” value ([4]; Pt 7) was 0.47 and the “CsA Modulation of Uptake” value ([4]; Pt 8) was 0.31. For the same molecule, the “CsA Modulation of Uptake” value ([4]; Pt 9) was 0.08, the “CsA Modulation of Uptake” value ([4]; Pt 10) was 0.08 and the “CsA Modulation of Uptake” value ([4]; Pt 11) was 0.03. For the same molecule, the “CsA Modulation of Uptake” value ([4]; Pt 12) was 0.37, the “CsA Modulation of Uptake” value ([4]; Pt 13) was 0.16 and the “CsA Modulation of Uptake” value ([4]; Pt 14) was 0.29. The “CsA Modulation of Uptake” value ([4]; Pt 15) was 0.07, the “CsA Modulation of Uptake” value ([4]; Pt 16) was 0.08 and the “CsA Modulation of Uptake” value ([4]; Pt 17) was 0.24. The “CsA Modulation of Uptake” value ([4]; Pt 18) was 0.03, the “CsA Modulation of Uptake” value ([4]; Pt 19) was 0.04 and the “CsA Modulation of Uptake” value ([4]; Pt 20) was 0.35. The “CsA Modulation of Uptake” value ([4]; Pt 21) was 0.12, the “CsA Modulation of Uptake” value ([4]; Pt 22) was 0.43 and the “number of patient samples with uptake increased by ≧10% by Cyclosporin A” value [4] was 16 patient samples. For the same molecule, the “loss of potency in the Pgp+ line” value ([5]; HL60/VCR vs HL60) was 2 log units and the IC50 [5] was 92 nM.

In the case of `CO[C@@H]1[C@H](N(C)C(=O)c2ccccc2)C[C@H]2O[C@]1(C)n1c3ccccc3c3c4c(c5c6ccccc6n2c5c31)C(=O)NC4` [PKC412], the “Digoxin Efflux (efflux/influx ratio), MDR1-MDCK” value (Pgp [6]) is reported as 6.4 ± 0.8 and the “Digoxin Efflux (efflux/influx ratio), Caco-2” value (Pgp [7]) is reported as 1.8 ± 1.3.

`C[C@H]1O[C@@H](O[C@H]2[C@@H](O)C[C@H](O[C@H]3[C@@H](O)C[C@H](O[C@H]4CC[C@@]5(C)[C@H](CC[C@@H]6[C@@H]5C[C@@H](O)[C@]5(C)[C@@H](C7=CC(=O)OC7)CC[C@]65O)C4)O[C@@H]3C)O[C@@H]2C)C[C@H](O)[C@@H]1O` [Digoxin, digoxin] was tested, and the “Digoxin Efflux (efflux/influx ratio), MDR1-MDCK” value (Pgp [6]) was 70 + 11 and the “Digoxin Efflux (efflux/influx ratio), Caco-2” value (Pgp [7]) was 10.6 ± 1.4.

With amonafide L-malate the “increase of uptake” value [4] was −2.5%, the “CsA Modulation of Uptake” value ([4]; Pt 1) was 0 and the “CsA Modulation of Uptake” value ([4]; Pt 2) was 0.09. The “CsA Modulation of Uptake” value ([4]; Pt 3) was 0, the “CsA Modulation of Uptake” value ([4]; Pt 4) was 0.02 and the “CsA Modulation of Uptake” value ([4]; Pt 5) was 0. The “CsA Modulation of Uptake” value ([4]; Pt 6) was 0.1, the “CsA Modulation of Uptake” value ([4]; Pt 7) was 0.31 and the “CsA Modulation of Uptake” value ([4]; Pt 8) was 0.07. The “CsA Modulation of Uptake” value ([4]; Pt 9) was 0, the “CsA Modulation of Uptake” value ([4]; Pt 10) was 0.18 and the “CsA Modulation of Uptake” value ([4]; Pt 11) was 0. The “CsA Modulation of Uptake” value ([4]; Pt 12) was 0, the “CsA Modulation of Uptake” value ([4]; Pt 13) was 0.03 and the “CsA Modulation of Uptake” value ([4]; Pt 14) was 0.05. For the same molecule, the “CsA Modulation of Uptake” value ([4]; Pt 15) was 0, the “CsA Modulation of Uptake” value ([4]; Pt 16) was 0 and the “CsA Modulation of Uptake” value ([4]; Pt 17) was 0. For the same molecule, the “CsA Modulation of Uptake” value ([4]; Pt 18) was 0, the “CsA Modulation of Uptake” value ([4]; Pt 19) was 0 and the “CsA Modulation of Uptake” value ([4]; Pt 20) was 0.15. The “CsA Modulation of Uptake” value ([4]; Pt 21) was 0.43, the “CsA Modulation of Uptake” value ([4]; Pt 22) was 0 and the “substrate status for the MDR proteins expressed in AML cells” value ([4]; in relation to other topoisomerase 2 inhibitors) was “poor substrate”. For the same molecule, the “number of patient samples with uptake increased by ≧10% by Cyclosporin A” value [4] was 5 patient samples.

For `COc1cccc2c1C(=O)c1c(O)c3c(c(O)c1C2=O)C[C@@](O)(C(=O)CO)C[C@@H]3O[C@H]1C[C@H](N)[C@H](O)[C@H](C)O1` [Doxorubicin, doxorubicin], the IC50 [1, 12] was 33 nM, the “Fold Change in IC50” value [5] was 4.87 and the IC50 [5] was 161 nM.

`CCN1/C(=C/C=C/c2oc3ccccc3[n+]2CC)Oc2ccccc21.[I-]` [DiOC2] was tested, and the DiOC2 accumulation [8] was “accumulated in Pgp negative K562 cells”.

`CC(=O)[C@]1(O)Cc2c(O)c3c(c(O)c2[C@@H](O[C@H]2C[C@H](N)[C@H](O)[C@H](C)O2)C1)C(=O)c1ccccc1C3=O` [Idarubicin, idarubicin] was tested, and the “increase of uptake” value [4] was 7%, the “CsA Modulation of Uptake” value ([4]; Pt 1) was 0 and the “CsA Modulation of Uptake” value ([4]; Pt 2) was 0.23. The “CsA Modulation of Uptake” value ([4]; Pt 3) was 0.22, the “CsA Modulation of Uptake” value ([4]; Pt 4) was 0.17 and the “CsA Modulation of Uptake” value ([4]; Pt 5) was 0. The “CsA Modulation of Uptake” value ([4]; Pt 6) was 0.21, the “CsA Modulation of Uptake” value ([4]; Pt 7) was 0.21 and the “CsA Modulation of Uptake” value ([4]; Pt 8) was 0.16. The “CsA Modulation of Uptake” value ([4]; Pt 9) was 0.18, the “CsA Modulation of Uptake” value ([4]; Pt 10) was 0.02 and the “CsA Modulation of Uptake” value ([4]; Pt 11) was 0.05. For the same molecule, the “CsA Modulation of Uptake” value ([4]; Pt 12) was 0.08, the “CsA Modulation of Uptake” value ([4]; Pt 13) was 0.06 and the “CsA Modulation of Uptake” value ([4]; Pt 14) was 0.28. For the same molecule, the “CsA Modulation of Uptake” value ([4]; Pt 15) was 0.16, the “CsA Modulation of Uptake” value ([4]; Pt 16) was 0.03 and the “CsA Modulation of Uptake” value ([4]; Pt 17) was 0. For the same molecule, the “CsA Modulation of Uptake” value ([4]; Pt 18) was 0, the “CsA Modulation of Uptake” value ([4]; Pt 19) was 0.17 and the “CsA Modulation of Uptake” value ([4]; Pt 20) was 0.23. For the same molecule, the “CsA Modulation of Uptake” value ([4]; Pt 21) was 0.19, the “CsA Modulation of Uptake” value ([4]; Pt 22) was 0.31 and the “number of patient samples with uptake increased by ≧10% by Cyclosporin A” value [4] was 12 patient samples.

In the case of `O=C1c2c(O)ccc(O)c2C(=O)c2c(NCCNCCO)ccc(NCCNCCO)c21` [Mitoxantrone, mitoxantrone], the IC50 [1, 12] is reported as 8 nM, the “Fold Change in IC50” value [5] is reported as 390.7 and the IC50 [5] is reported as 3110 nM.

With `CC[C@@]1(O)C(=O)OCc2c1cc1n(c2=O)Cc2cc3c(CN(C)C)c(O)ccc3nc2-1` [TPT, Topotecan] the “resistance of T8 line to Topotecan relative to Amonafide” value [9] was 10 fold, the IC50 ([10]; experiment (1)) was 1100 nM and the IC50 ([10]; experiment (2)) was 1090 nM. The IC50 ([11]; IGROV-1, IGROV1, experiment (1)) was 36 nM and the IC50 ([11]; IGROV-1, IGROV1, experiment (2)) was 73.9 nM.
